Assay results published in patent US6569878B1, “Substituted 4-amino-thiazol-2-yl compounds as cyclin-dependent kinase inhibitors” (Agouron Pharmaceuticals Inc., priority 1997, dated 2003).

Experiments:
[1] = test system: HCT116; assay: Inhibition of cell growth, MTT assay, HCT116; format: cell-based, human; details: for inhibition at 30 µM: HCT-116, at 30 μM; for IC50 / IC90: HCT-116
Outline: (§1)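 Cells rested 4 h after plating, then exposed to graded compound concentrations in 0.5% (v/v) DMSO for four to six days (cell-type dependent) at 37° C, 5% CO2. Viability was read by MTT (0.2 mg/mL final, 4 h at 37° C), with DMSO-solubilized formazan measured at 540 nm.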

[2] = test system: SW-480; assay: Inhibition of cell growth, MTT assay, SW-480; format: cell-based; details: Homo sapiens, SW480, SW-480, MTT assay
Experimental: Inhibition of cell growth was measured using the tetrazolium salt assay, which is based on the ability of viable cells to reduce 3-(4,5-dimethylthiazol-2-yl)-2,5-[2H]-diphenyltetrazolium bromide (MTT) to formazan (Mossman, Journal of Immunological Methods, vol. 65 (1983), pp. 55-58). The water-insoluble purple formazan product was then detected spectrophotometrically. Various cell lines (HCT-116, Saos-2, U2-OS, SW480, COLO-205, RXF-393, M14, MDA-MB-468, and MCF7) were grown in 96-well plates. Cells were plated in the appropriate medium at a volume of 135 μl/well in either McCoy's 5A Medium (for Saos-2, U2-OS, SW480, and HCT-116 cells), RPMI (for COLO-205, RXF-393, M14 cells), or Minimum Essential Medium Eagle (for MDA-MB-468 and MCF7 cells). Plates were incubated for four hours before addition of inhibitor compounds. Different concentrations of inhibitor compounds were added in 0.5% (v/v) dimethylsulfoxide (15 μL/well), and cells were incubated at 37° C. (5% CO2) for four to six days (depending on cell type). At the end of the incubation, MTT was added to a final concentration of 0.2 mg/mL, and cells were incubated for 4 hours more at 37° C. After centrifugation of the plates and removal of medium, the absorbance of the formazan (solubilized in dimethylsulfoxide) was measured at 540 nm. […] All results were compared to control cells treated only with 0.5% (v/v) dimethylsulfoxide.

[3] = target: T1, CDK2/cyclin A (Homo sapiens, UniProt P24941); assay: Inhibition of CDK2/cyclin A retinoblastoma kinase activity; format: biochemical; details: read-out: Ki CDK 2/A
T1 construct: made in house; host or cells: CDK2: insect cells (baculovirus); cyclin A: E. coli, then limited proteolysis
Outline: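 Baculovirus-expressed CDK2 with excess proteolyzed cyclin A (or purified complex), 150 nM or 5 nM, phosphorylating an Rb fragment with 25 μM [32/33P]ATP, pH 7.4, 30° C, 20 min. Filter-captured radioactivity by phosphorimager; apparent Ki from fits to competitive or tight-binding competitive inhibition using measured ATP Km.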

[4] = target: T2, complex of human CDK4 and cyclin D3 (Homo sapiens, UniProt P11802); assay: Inhibition of CDK4/cyclin D retinoblastoma kinase activity (D-type cyclin is D3); format: biochemical; details: superscript a: D-type cyclin is D3; apparent Ki; read-out: Ki CDK 4/D
T2 construct: made in house; host or cells: insect cells, co-infected with baculovirus
Outline: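 Apparent Ki derived by fitting background-corrected activity to competitive (or, for tight binders, competitive tight-binding) equations with measured ATP Km. Rb phosphorylation by radiolabelled ATP was measured at 30°C, 20 min standard or 60 min at 5 nM complex for tight binders, via nitrocellulose capture and phosphorimager.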

[5] = target: T3, human CDK1 (cdc2) and cyclin B (Homo sapiens, UniProt P06493); assay: Inhibition of CDK1(cdc2)/cyclin B histone H1 kinase activity; format: biochemical; details: read-out: Ki CDK 1/B
T3 construct: purchased New England Biolabs (Beverly Mass.)
Experimental: Cyclin-dependent kinase activity was measured by quantifying the enzyme-catalyzed, time-dependent incorporation of radioactive phosphate from [^32P]ATP or [^33P]ATP into a protein substrate. Unless noted otherwise, assays were performed in 96-well plates in a total volume of 50 μL, in the presence of 10 mM HEPES (N-[2-hydroxyethyl]piperazine-N′-[2-ethanesulfonic acid]) (pH 7.4), 10 mM MgCl2, 25 μM adenosine triphosphate (ATP), 1 mg/mL ovalbumin, 5 μg/mL leupeptin, 1 mM dithiothreitol, 10 mM β-glycerophosphate, 0.1 mM sodium vanadate, 1 mM sodium fluoride, 2.5 mM ethylene glycol-bis(β-aminoethyl ether)-N,N,N′N′-tetraacetic acid (EGTA), 2% (v/v) dimethylsulfoxide, and 0.03-0.4 μCi [^32/33P]ATP per reaction. Reactions were initiated with enzyme, incubated at 30° C., and terminated after 20 minutes by the addition of ethylenediaminetetraacetic acid (EDTA) to 250 mM. The phosphorylated substrate was then captured on a nitrocellulose or phosphocellulose membrane using a 96-well filtration manifold, and unincorporated radioactivity was removed by repeated washing with 0.85% phosphoric acid. Radioactivity was quantified by exposing the dried membranes to a phosphorimager.
Apparent Ki values were measured by assaying enzyme activity in the presence of different inhibitor compound concentrations and subtracting the background radioactivity measured in the absence of enzyme. The kinetic parameters (kcat, Km for ATP) were measured for each enzyme under the usual assay conditions by determining the dependence of initial rates on ATP concentration. Inhibition data were fit to an equation for competitive inhibition using Kaleidagraph (Synergy Software), or were fit to an equation for competitive tight-binding inhibition using the software KineTic (BioKin, Ltd.).
The complex of human CDK1 (cdc2) and cyclin B was purchased from New England Biolabs (Beverly Mass.). Alternatively, a CDK1/glutathione-S-transferase-cyclin B1 complex was purified using glutathione affinity chromatography from insect cells that had been co-infected with the corresponding baculovirus expression vectors. The assay was executed as described above at 30° C. using 2.5 units of cdc2/cyclin B, 10 μg Histone H1 protein, and 0.1-0.3 μCi [^32/33P]ATP per assay. Phosphorylated histone substrate was captured by microfiltration on a phosphocellulose P81 membrane and quantified using a phosphorimager as described above. Ki values were measured using the described curve-fitting programs.

[6] = test system: Saos-2; assay: Inhibition of cell growth, MTT assay, Saos-2; format: cell-based; details: Homo sapiens; Saos-2, MTT assay
Outline: as §1

[7] = test system: MCF-7; assay: Inhibition of cell growth, MTT assay, MCF-7; format: cell-based; details: MCF-7, MTT assay; for IC50 / IC90: Homo sapiens, MCF7
Experimental: (§2) The water-insoluble purple formazan product was then detected spectrophotometrically. […] Plates were incubated for four hours before addition of inhibitor compounds. Different concentrations of inhibitor compounds were added in 0.5% (v/v) dimethylsulfoxide (15 μL/well), and cells were incubated at 37° C. (5% CO2) for four to six days (depending on cell type). At the end of the incubation, MTT was added to a final concentration of 0.2 mg/mL, and cells were incubated for 4 hours more at 37° C. After centrifugation of the plates and removal of medium, the absorbance of the formazan (solubilized in dimethylsulfoxide) was measured at 540 nm.

[8] = test system: MDA-MB-468; assay: Inhibition of cell growth, MTT assay, MDA-MB-468; format: cell-based; details: Homo sapiens; MDA-MB-468, MTT assay
Experimental: as §2

[9] = test system: U2-OS; assay: Inhibition of cell growth, MTT assay, U2-OS; format: cell-based; details: for IC50 / IC90: Homo sapiens, U2OS
Outline: as §1

T3 sequence (P06493 whole entry): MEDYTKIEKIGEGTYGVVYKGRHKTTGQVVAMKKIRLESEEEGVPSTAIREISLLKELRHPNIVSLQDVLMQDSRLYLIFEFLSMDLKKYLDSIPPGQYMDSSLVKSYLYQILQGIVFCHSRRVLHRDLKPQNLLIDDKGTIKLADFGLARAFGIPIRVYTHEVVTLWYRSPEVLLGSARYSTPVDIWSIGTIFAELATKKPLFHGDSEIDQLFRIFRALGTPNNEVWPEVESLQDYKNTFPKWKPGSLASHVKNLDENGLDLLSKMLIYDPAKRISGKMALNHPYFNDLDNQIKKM
T3 sequence (P14635 whole entry partner): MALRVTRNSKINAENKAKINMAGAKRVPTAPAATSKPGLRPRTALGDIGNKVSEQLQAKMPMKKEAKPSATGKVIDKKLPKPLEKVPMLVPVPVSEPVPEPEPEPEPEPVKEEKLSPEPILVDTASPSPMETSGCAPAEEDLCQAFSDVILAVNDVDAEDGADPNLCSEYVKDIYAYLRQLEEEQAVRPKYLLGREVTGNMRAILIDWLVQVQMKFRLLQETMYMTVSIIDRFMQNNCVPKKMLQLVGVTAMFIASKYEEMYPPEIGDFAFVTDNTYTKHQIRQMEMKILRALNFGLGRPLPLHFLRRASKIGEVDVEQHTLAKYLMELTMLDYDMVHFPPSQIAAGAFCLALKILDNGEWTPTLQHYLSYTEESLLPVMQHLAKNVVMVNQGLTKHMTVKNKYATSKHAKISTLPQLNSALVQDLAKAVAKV
T2 sequence (P11802 whole entry): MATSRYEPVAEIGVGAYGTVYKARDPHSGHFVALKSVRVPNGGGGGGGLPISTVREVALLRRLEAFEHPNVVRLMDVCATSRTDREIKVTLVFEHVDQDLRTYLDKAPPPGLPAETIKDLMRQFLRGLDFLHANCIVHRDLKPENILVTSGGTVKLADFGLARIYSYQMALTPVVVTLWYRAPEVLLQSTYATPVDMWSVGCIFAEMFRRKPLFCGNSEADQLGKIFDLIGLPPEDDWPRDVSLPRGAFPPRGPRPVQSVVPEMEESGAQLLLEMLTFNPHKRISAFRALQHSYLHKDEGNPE
T2 sequence (P30281 whole entry partner): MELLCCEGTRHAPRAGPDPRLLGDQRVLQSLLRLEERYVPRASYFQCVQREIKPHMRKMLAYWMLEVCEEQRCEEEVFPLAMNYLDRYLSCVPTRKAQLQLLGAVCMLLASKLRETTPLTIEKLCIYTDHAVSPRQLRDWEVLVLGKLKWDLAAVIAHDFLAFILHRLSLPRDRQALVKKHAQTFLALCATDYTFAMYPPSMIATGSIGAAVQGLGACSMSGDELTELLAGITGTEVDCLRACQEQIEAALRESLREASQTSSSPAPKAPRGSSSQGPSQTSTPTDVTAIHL

IC50 [2] [µM]	Ki [3] [nM]	Ki [4] [nM]	IC50 ([1]; Homo sapiens) [µM]	IC90 ([1]; Homo sapiens) [µM]	IC90 [2] [µM]	Ki [5] [nM]	Compound	inhibition at 30 µM ([1]; Homo sapiens) [%]	inhibition at 30 µM [2] [%]	other results
22	4800	1600					CN(C)c1ccc(Nc2nc(N)c(C(=O)c3ccccn3)s2)cc1 [I(19)]	16	58	
5	292	150	20	30	15	52	Cc1nc2ccc(Nc3nc(N)c(C(=O)c4ccccc4[N+](=O)[O-])s3)cc2[nH]1 [A(6), [4-Amino-2-(2-methyl-1H-benzoimidazol-6-ylamino)-thiazol-5-yl]-(2-nitro-phenyl)-methanone]			
0.7	318	36	0.95	1.8	7.5	57	COc1ccc(Nc2nc(N)c(C(=O)c3ccccc3[N+](=O)[O-])s2)cc1 [A(10), [4-Amino-2-(4-methoxy-phenylamino)-thiazol-5-yl]-(2-nitro-phenyl)-methanone]			IC50 [6]: 1300 nM; IC90 [6]: 4.6 µM; IC50 [7]: 650 nM; IC90 [7]: 5.5 µM; IC50 [8]: 720 nM; IC90 [8]: 1700 nM; IC50 [9]: 900 nM; IC90 [9]: 1600 nM
	6100	2000				3500	Nc1nc(Nc2cccnc2)sc1C(=O)c1ccccc1 [A(3), [4-Amino-2-(pyridin-3-ylamino)-thiazol-5-yl]-phenyl-methanone]	41	15	
1.7	690	97	26		3	163	CCOC(=O)c1ccc(Nc2nc(N)c(C(=O)c3ccccc3[N+](=O)[O-])s2)cc1 [A(5), Ethyl 4-[4-Amino-5-(2-nitro-benzoyl)-thiazol-2-ylamino]-benzoate]	85		
8.3	389	27	18	> 25	20	97	Cc1c(C(=O)c2sc(Nc3ccc4nc[nH]c4c3)nc2N)sc2ccccc12 [C(8), [4-Amino-2-(1H-benzoimidazol-6-ylamino)-thiazol-5-yl]-(3-methyl-benzo[b]thiophen-2-yl)-methanone]			IC50 [6]: 6200 nM; IC90 [6]: 18 µM; % inhibition of growth in parentheses after >25 ([1]; concentration not given): 88%; IC50 [7]: 15000 nM; IC90 [7]: > 25 µM; % inhibition of growth in parentheses after >25 ([7]; concentration not given): (82%); IC50 [8]: 6800 nM; IC90 [8]: 15000 nM; IC50 [9]: 10000 nM; IC90 [9]: > 25000 nM; % inhibition of growth in parentheses after >25 ([9]; concentration not given): 84%
0.4	810	95	0.7	30	3	90	CN(C)c1ccc(Nc2nc(N)c(C(=O)c3ccccc3[N+](=O)[O-])s2)cc1 [C(4), [4-Amino-2-(4-dimethylamino-phenylamino)-thiazol-5-yl]-(2-nitro-phenyl)-methanone]			
	3100	2000				2700	Nc1nc(Nc2ccccc2)sc1C(=O)c1ccccn1 [A(4), (4-Amino-2-phenylamino-thiazol-5-yl)-pyridin-2-yl-methanone]	29	66	inhibition at 10 µM ([2]; at 10 μM): 0%
4	230	100	20	30	10	53	Nc1nc(Nc2ccc3nc[nH]c3c2)sc1C(=O)c1ccccc1[N+](=O)[O-] [A(9), [4-Amino-2-(1H-benzoimidazol-6-yl-amino)-thiazol-5-yl]-(2-nitro-phenyl)-methanone]			
3	780	140	6	25	9	293	Nc1nc(NCCc2ccccc2)sc1C(=O)c1ccccc1[N+](=O)[O-] [C(5), (4-Amino-2-phenethylamino-thiazol-5-yl)-(2-nitro-phenyl)-methanone]			
	260	14	0.64	1.7		104	CN(C)CCN(C)c1ccc(Nc2nc(N)c(C(=O)c3c(F)cccc3F)s2)cc1 [C(110), (4-Amino-2-{4-[(2-dimethylamino-ethyl)-methyl-amino]-phenylamino}-thiazol-5-yl)-(2,6-difluoro-phenyl)-methanone]			IC50 [6]: 890 nM; IC90 [6]: 1.8 µM; IC50 [7]: 400 nM; IC90 [7]: 1.7 µM; IC50 [8]: 440 nM; IC90 [8]: 750 nM; IC50 [9]: 700 nM; IC90 [9]: 1600 nM
	320	420				30	Nc1nc(Nc2ccc(C(=O)O)cc2)sc1C(=O)c1ccccc1[N+](=O)[O-] [E(1), 4-[4-Amino-5-(2-nitro-benzoyl)-thiazol-2-ylamino]-benzoic Acid]	17	23	inhibition at 10 µM ([1]; Homo sapiens, HCT-116, at 10 μM): 17%
